Experimental data reported in article PMC6009932, “Small molecule purine and pseudopurine derivatives: synthesis, cytostatic evaluations and investigation of growth inhibitory effect in non-small cell lung cancer A549” (Journal of Enzyme Inhibition and Medicinal Chemistry, 2017).

Legend:
A549 (lung carcinoma) = test: Proliferation assay (MTT, 72 h) on A549; assay type: cell-based; details: Homo sapiens, A549 lung adenocarcinoma
Experimental: (§1) Human carcinoma cell lines A549 (lung carcinoma), HeLa (cervical carcinoma), SW620 (colorectal adenocarcinoma, metastatic), and CFPAC-1 (pancreatic cancer, derived from metastatic: liver), normal human lung (WI38) and foreskin (HFF-1) fibroblasts were obtained from the American Type Culture Collection (ATCC). Cells were cultured in humidified atmosphere at 37 °C with 5% CO2. As growth medium, Dulbecco’s modified Eagle medium (DMEM) was used with the addition of foetal bovine serum (10%), L-glutamine (2 mM) and antibiotics: streptomycin (100 µg/ml) and penicillin (100 U/ml).
(§2) Cells were seeded onto 96-well microtiter plates at a seeding density of 3000 cells/well for carcinoma cell lines, and 5000 cells/well for normal human fibroblasts. The next day, cells were treated with test agents in five different concentrations (0.01–100 µM) and further incubated for 72 h. […] Following 72 h incubation, the MTT assay was performed and measured absorbances were transformed into percentage of cell growth as described previously. Results were obtained from three independent experiments. IC50 values were calculated using linear regression analysis and results were statistically analysed by ANOVA, Tukey post-hoc test (p < .05).

[1] = test system: CFPAC-1 (ductal pancreatic adenocarcinoma); test: Proliferation assay (MTT, 72 h) on CFPAC-1; assay type: cell-based; details: Homo sapiens
Experimental: as §1, §2

[2] = test system: HeLa (cervical carcinoma); test: Proliferation assay (MTT, 72 h) on HeLa; assay type: cell-based; details: Homo sapiens
Experimental: as §1, §2

[3] = test system: SW620 (colorectal adenocarcinoma, metastatic); test: Proliferation assay (MTT, 72 h) on SW620; assay type: cell-based; details: Homo sapiens, SW-620
Experimental: as §1, §2

[4] = test system: WI38 normal human lung fibroblasts; test: Proliferation assay (MTT, 72 h) on normal lung fibroblasts WI38; assay type: cell-based; details: WI-38, read-out: IC50 WI38/HFF-1 (WI38)
Experimental: as §1, §2

Row | SMILES | IC50 (A549 (lung carcinoma)) [µM] | IC50 [1] [µM] | IC50 [2] [µM] | IC50 [3] [µM] | IC50 [4] [µM] | melting point [°C]
1 | Fc1ccc(-n2cc(Cn3cnc4c(Cl)ncnc43)nn2)cc1 [Compound 4a, 6-Chloro-9-{[1–(4-fluorophenyl)-1 H-1,2,3-triazol-4-yl]methyl}-9 H-purine] | 53.2 | 33.4 | 34.2 | 38.9 | 5.21 | 
2 | FC(F)(F)c1ccc(-n2cc(Cn3cnc4c(Cl)ncnc43)nn2)cc1 [Compound 4c, 6-Chloro-9-{[1-(4-(trifluoromethyl)phenyl)-1H-1,2,3-triazol-4-yl]methyl}-9H-purine] | 15.9 | 7.9 | 12.3 | 14.7 | 0.75 | 
3 | Fc1ccccc1-n1cc(Cn2cnc3c(Cl)ncnc32)nn1 [Compound 4d, 6-Chloro-9-{[1-(2-fluorophenyl)-1H-1,2,3-triazol-4-yl]methyl}-9H-purine] | 54.6 | 31.1 | 33.2 | 41.8 | 23.9 | 143 to 145
4 | O=c1cc(Cn2cc(Cn3cnc4c(Cl)ncnc43)nn2)c2ccc(O)cc2o1 [Compound 4e, 4-{[4-((6-Chloro-9H-purin-9-yl)methyl)-1H-1,2,3-triazol-1-yl]methyl}-7-hydroxy-2H-chromen-2-one] | 89 | > 100 | 58 | 92.5 | 6.58 | 
5 | FC(F)(F)c1ccc(-n2cc(Cn3cnc4c(Cl)nccc43)nn2)cc1 [Compound 5c, 4-Chloro-1-{[1-(4-(trifluoromethyl)phenyl)-1H-1,2,3-triazol-4-yl]methyl}-1H-imidazo[4,5-c]pyridine] | 9.43 | 7.39 | 22.5 | 11.8 | 5.21 | 151 to 154
6 | Fc1ccccc1-n1cc(Cn2cnc3c(Cl)nccc32)nn1 [Compound 5d, 4-Chloro-1-{[1–(2-fluorophenyl)-1H-1,2,3-triazol-4-yl]methyl}-1H-imidazo[4,5-c]pyridine] | 73.9 | > 100 | > 100 | 90.2 | 23.9 | 124 to 127
7 | O=c1cc(Cn2cc(Cn3cnc4c(Cl)nccc43)nn2)c2ccc(O)cc2o1 [Compound 5e] | > 100 | > 100 | > 100 | > 100 | 60.5 | 
8 | O=c1cc(Cn2cc(Cn3cnc4ncnc(Cl)c43)nn2)c2ccc(O)cc2o1 [Compound 6e, 4-{[4-((6-Chloro-7H-purin-7-yl)methyl)-1H-1,2,3-triazol-1-yl]methyl}-7-hydroxy-2H-chromen-2-one] | > 100 | > 100 | > 100 | > 100 | 73.6 | > 250
9 | FC(F)(F)c1ccc(-n2cc(Cn3cnc4ccnc(Cl)c43)nn2)cc1 [Compound 7c, 4-Chloro-3-{[1-(4-(trifluoromethyl)phenyl)-1H-1,2,3-triazol-4-yl]methyl}-3H-imidazo[4,5-c]pyridine] | > 100 | 89.2 | 36.8 | 69 | 19.4 | 183 to 185
10 | O=c1cc(Cn2cc(Cn3cnc4ccnc(Cl)c43)nn2)c2ccc(O)cc2o1 [Compound 7e, 4-{[4-((4-Chloro-3H-imidazo[4,5-c]pyridin-3-yl)methyl)-1H-1,2,3-triazol-1-yl]methyl}-7-hydroxy-2H-chromen-2-one] | > 100 | > 100 | 8.77 | > 100 | 7.62 | 
11 | Fc1ccc(-n2cc(Cn3ccc4c(Cl)ncnc43)nn2)cc1 [Compound 8a, 4-Chloro-7-{[1-(4-fluorophenyl)-1H-1,2,3-triazol-4-yl]methyl}-7H-pyrrolo[2,3-d]pyrimidine] | 85.4 | 48.4 | 39.4 | 8.5 | 32.2 | 
12 | Clc1ccc(-n2cc(Cn3ccc4c(Cl)ncnc43)nn2)cc1 [Compound 8b, 4-Chloro-7-{[1-(4-chlorophenyl)-1H-1,2,3-triazol-4-yl]methyl}-7H-pyrrolo[2,3-d]pyrimidine] | 64.5 | 47.7 | 65.5 | 44.6 | 21 | 
13 | FC(F)(F)c1ccc(-n2cc(Cn3ccc4c(Cl)ncnc43)nn2)cc1 [Compound 8c, 4-Chloro-7-{[1-(4-(trifluoromethyl)phenyl)-1H-1,2,3-triazol-4-yl]methyl}-7H-pyrrolo[2,3-d]pyrimidine] | 46.9 | 46.6 | 38.8 | 37.1 | 4.62 | 
14 | Fc1ccccc1-n1cc(Cn2ccc3c(Cl)ncnc32)nn1 [Compound 8d, 4-Chloro-7-{[1-(2-fluorophenyl)-1H-1,2,3-triazol-4-yl]methyl}-7H-pyrrolo[2,3-d]pyrimidine] | 69 | 35.2 | 83.3 | 65.5 | 22.5 | 112 to 114
15 | O=c1cc(Cn2cc(Cn3ccc4c(Cl)ncnc43)nn2)c2ccc(O)cc2o1 [Compound 8e, 4-{[4-((4-Chloro-7H-pyrrolo[2,3-d]pyrimidin-7-yl)methyl)-1H-1,2,3-triazol-1-yl]methyl}-7-hydroxy-2H-chromen-2-one] | 69.2 | 36.3 | 33.6 | 73.5 | 39.9 | 202 to 204
16 | FC(F)(F)c1ccc(-n2cc(Cn3cc(Br)c4c(Cl)ncnc43)nn2)cc1 [Compound 9c, 5-Bromo-4-chloro-7-{[1-(4-(trifluoromethyl)phenyl)-1H-1,2,3-triazol-4-yl]methyl}-7H-pyrrolo[2,3-d]pyrimidine] | 66.4 | 62.8 | 32.9 | 55.7 | 57.5 | 220 to 221
17 | Fc1ccccc1-n1cc(Cn2cc(Br)c3c(Cl)ncnc32)nn1 [Compound 9d, 5-Bromo-4-chloro-7-{[1–(2-fluorophenyl)-1 H-1,2,3-triazol-4-yl]methyl}-7 H-pyrrolo[2,3-d]pyrimidine] | 86.4 | 65.1 | 20 | 65.9 | 48.5 | 145 to 147
18 | O=c1cc(Cn2cc(Cn3cc(Br)c4c(Cl)ncnc43)nn2)c2ccc(O)cc2o1 [Compound 9e, 4-{[4-((5-Bromo-4-chloro-7H-pyrrolo[2,3-d]pyrimidin-7-yl)methyl)-1H-1,2,3-triazol-1-yl]methyl}-7-hydroxy-2H-chromen-2-one] | 45.5 | 47.3 | 24.5 | 45.1 | 10.8 | > 250
19 | Fc1ccc(-n2cc(Cn3ccc4cc(F)ccc43)nn2)cc1 [Compound 10a, 1-{[1-(4-Fluorophenyl)-1H-1,2,3-triazol-4-yl]methyl}-5-fluoro-1H-indole] | > 100 | > 100 | > 100 | > 100 | > 100 | 
20 | Fc1ccc2c(ccn2Cc2cn(-c3ccc(Cl)cc3)nn2)c1 [Compound 10b] | 40.2 | > 100 | 31 | 45.8 | 58.1 | 117 to 120
21 | Fc1ccc2c(ccn2Cc2cn(-c3ccccc3F)nn2)c1 [Compound 10d, 5-Fluoro-1-{[1-(2-fluorophenyl)-1H-1,2,3-triazol-4-yl]methyl}-1H-indole] | > 100 | > 100 | 82.9 | > 100 | > 100 | 
22 | Fc1ccc(-n2cc(Cn3cnc4ccccc43)nn2)cc1 [Compound 12a, 1-{[1-(4-fluorophenyl)-1H-1,2,3-triazol-4-yl]met-hyl}-1H-benzo[d]imidazole] | 76.3 | 86.5 | 71.7 | 99.9 | 91.9 | 
23 | FC(F)(F)c1ccc(-n2cc(Cn3cnc4ccccc43)nn2)cc1 [Compound 12c, 1-{[1–(4-(trifluoromethyl)phenyl)-1H-1,2,3-triazol-4-yl]methyl}-1H-benzo[d]imidazole] | 14.2 | 56.4 | 30.6 | > 100 | > 100 | 
24 | Fc1ccccc1-n1cc(Cn2cnc3ccccc32)nn1 [Compound 12d, 1-{[1–(2-fluorophenyl)-1H-1,2,3-triazol-4-yl]methyl}-1H-benzo[d]imidazole] | 36.2 | 34.7 | 21.9 | > 100 | 30.6 | 
25 | O=c1cc(Cn2cc(Cn3cnc4ccccc43)nn2)c2ccc(O)cc2o1 [Compound 12e, 4-{4-[((1H-benzo[d]imidazol-1-yl)methyl)-1H-1,2,3-triazol-1-yl]methyl}-7-hydroxy-4a,8a-dihydro-2H-chromen-2-on] | > 100 | > 100 | > 100 | > 100 | > 100 | 
